Consider 1 compound from patent US20260102460A1, “NOVEL COMBINATIONS OF ANTIBIOTICS AND NON-ANTIBIOTIC DRUGS EFFECTIVE IN VIVO AGAINST GRAM-POSITIVE BACTERIA, IN PARTICULAR METHICILLIN-RESISTANT S. AUREUS (MRSA)” (EUROPEAN MOLECULAR BIOLOGY LABORATORY, priority 2022, published 2026).

“Also recorded” adds a separate entry of the source.

The test system of one experiment is MRSA. The note with it: ticagrelor 10 μg/mL combined with vancomycin 4 μg/mL; cited from earlier work.
A further experiment concerns S. aureus USA300. The experiment is described as follows: Time-kill experiments. It is filed as cell-based, Staphylococcus aureus. The note with it: ticagrelor 5 μg/ml, gentamicin 1.5 μg/ml, plated every 30 minutes for 2 hours (FIG. 5d). As to the method: Overnight cultures of S. aureus USA300 were diluted 1:100 in 20 ml of TSB medium, incubated for 1 h in flasks at 37° C. with continuous shaking and diluted again 1:100 in 20 ml prewarmed TSB with ticagrelor (5 μg/ml), gentamicin (1.5 μg/ml), their combination or without drugs. 50 μl of serial 10-fold dilutions of cultures were plated on TSA plates every 30 minutes for 2 hours. Cell viability was determined by counting CFUs after plates were incubated overnight in four independent experiments.

For a further experiment, the system named is MRSA clinical isolates. The experiment is described as follows: 8×8 broth microdilution checkerboard assays. In kind it is cell-based, Staphylococcus aureus. Particulars: MSSA and MRSA. The source says: Drug interaction networks in S. aureus, with drugs grouped according to their class (a) or targeted cellular process (b). Unique interactions across both strains tested are considered (i=331). Edge thickness represents the proportion of interactions for each node pair, considering all possible interactions given the number of drugs in each node. Nodes depict the drug class (a) or the targeted cellular process (b), and size is proportional to the number of drugs in the represented class/process. Only interacting drugs are considered (d=62). Synergies, antagonisms and nodes are colored according to FIG. 1. c. Novel and previously reported interactions detected in S. aureus. Interactions are considered known if reported in any S. aureus strain (Supplementary Table 4). d-e. Novel synergies are effective against MRSA clinical isolates in vitro (d) and in vivo in the G. mellonella infection model (e). […] The percentage of surviving larvae after treatment and in the untreated controls was monitored over time. […]
Combinations were tested in the same experimental conditions as for the screen, but at higher concentration resolution: drugs were diluted in eight concentrations spanning linearly-space gradients to assemble 8×8 checkerboards for each combination tested. […] Data was analyzed with the same pipeline as for the screen (Methods).
On the technique in general: Dilution methods test growth across graded concentrations, often in twofold steps.

For another experiment, the system named is S. aureus DSM 20231. The experiment is described as follows: Adjuvant (extended non-antibiotic) combination screen. It is filed as cell-based, Staphylococcus aureus. As to the method: MICs were tested in all strains for the main screen. Drugs were two-fold serially diluted in 11 concentrations, and 32 no-drug control wells were included in each plate. Experiments were conducted in 384-well plates (ref. 781271 by Greiner BioOne), with a total volume of 30 μl for S. aureus and B. subtilis and 55 μl for S. pneumoniae. Volumes were optimized for each strain to achieve good dynamic range for growth and minimize risk of cross-contamination between wells. Plates were inoculated with a starting optical density at 595 nm (OD595 nm) of 0.01 from an overnight culture. All liquid handling was performed using a Biomek FX liquid handler (Beckman Coulter). Plates were sealed with breathable membranes and incubated at 37° C. OD595 nm was measured every 30 minutes for 14 hours. The MIC was considered as the first concentration at which growth was inhibited. Experiments were conducted in biological duplicates. For the adjuvant screen, antibiotics were tested in S. aureus DSM 20231 at the same concentrations as for the main screen. Non-antibiotics concentrations were selected to fall within therapeutic ranges.
62 drugs, hereafter designated as recipients, were arrayed in 384-well plates (ref. 781271 by Greiner BioOne) in three two-fold serial dilutions and two technical replicates. Concentrations were selected according to MICs, with the highest concentration corresponding to the MIC, and the intermediate and lowest concentration corresponding to ½ and ¼ MIC, respectively. Plates were kept frozen and defrosted upon each experimental run, when the same 62 drugs and in the same three concentrations were added as donor drugs (one drug at one concentration for each recipient plate). A few drugs were screened only as donors: the combinations co-amoxiclav and cotrimoxazole in B. subtilis and S. aureus DSM 20231; co-amoxiclav, clavulanic acid, pseudomonic acid and cefuroxime in S. aureus Newman. All donor drugs were tested in two biological replicates. Control wells were included in each plate (six no-drug wells, three plain medium wells and three wells containing only the donor drug). After the addition of donor drugs, plates were inoculated with cells. Handling, inoculation, growth conditions, plate incubation and OD595 nm measurements were performed as for the MIC determination.
For the adjuvant screen, 44 non-antibiotic drugs were tested against the same recipient drugs of the main screen for S. aureus DSM 20231.
The inventors selected 44 drugs to include pharmaceuticals that can be co-administered with antibiotics in S. aureus infections or non-antibiotics with previously reported antibacterial activity against S. aureus. […] Interactions were scored and benchmarked as for the main screen (Methods).

Take `CCCSc1nc(N[C@@H]2C[C@H]2c2ccc(F)c(F)c2)c2nnn([C@@H]3C[C@H](OCCO)[C@@H](O)[C@H]3O)c2n1` [ticagrelor]: the “initial MRSA inoculum killed” value in the experiment on MRSA is on record as “approximately 50%”. Further, the “interaction with gentamicin at killing level (CFU over time)” value in the experiment on S. aureus USA300 was “evident”; in the experiment on S. aureus USA300 (listed as Ticagrelor), “synergizes”. The “interaction with gentamicin at growth inhibition level” value with MRSA clinical isolates (MRSA isolate resistant to tigecycline (FIG. 5c), ticagrelor combined with gentamicin) was “sensitized; also recorded: synergizes”. In the experiment on MRSA clinical isolates (ticagrelor combined with nisin), the “sensitization to cationic peptide nisin” value is reported as “sensitized”. Besides, the number of synergies in the experiment with S. aureus DSM 20231 (S. aureus, non-antibiotic drugs with antibiotics) came out at 13. Further, the number of interactions in the experiment with S. aureus DSM 20231 (among the 44 non-antibiotics tested, against panel of 62 drugs, S. aureus DSM 20231) was 27.
